Experimental data from US6867305B2, “Synthesis of epothilones, intermediates thereto and analogues thereof” (Sloan-Kettering Institute for Cancer Research, priority 1996, dated 2005).
≈ marks a conversion by molar mass, not a printed value. Entries after “also recorded” stand apart in the source; their conditions may differ. Read-outs that look alike come from different tables or passages of the source.

Legend:
[1] = test system: HL-60 human promyelocytic leukemia; experiment: Tumor cell growth inhibition in vitro; type: cell-based
Protocol: (§1) The cells were cultured at an initial density of 2-5×10^4 cells per ml. […] For solid tumor cells growing in a monolayer (such as MCF-7/Adr), cytotoxicitiy of the drug was determined in 96-well microtiter plates by using the sulforhodamine B method as described by Skehan et al (23) for measuring the cellular protein content. For cells that were grown in suspension (such as CCRF-CEM and its sublines), cytotoxicitiy was measured by using the 2,-3-bis(2-methoxy-4-nitro-5-sulfophenyl)-5carboxanilide)-2H terazodium hydroxide (XTT)-microculture tetrazonium method (24) in duplicate in 96-well microtiter plates. For both methods, the absorbance of each well was measured with a microplate reader (EL-340, Bio-Tek, Burlington, Vt.). Each run entailed six or seven concentrations of the tested drugs. Dose-effect relationship data were analyzed with the median-effect plot (25) by using a previously described computer program (26).

[2] = test system: K562 human chronic myeloblastic leukemia; experiment: Tumor cell growth inhibition in vitro; type: cell-based
Protocol: as §1

[3] = test system: HT-29 human colon adenocarcinoma; experiment: Tumor cell growth inhibition in vitro; type: cell-based
Protocol: as §1

[4] = test system: SK-OV-3 human ovary adenocarcinoma; experiment: Tumor cell growth inhibition in vitro; type: cell-based
Protocol: as §1

[5] = test system: MX-1 human mammary carcinoma; experiment: Tumor cell growth inhibition in vitro; type: cell-based; details: Homo sapiens, MX1
Protocol: as §1

[6] = test system: MCF-7 human mammary adenocarcinoma; experiment: Tumor cell growth inhibition in vitro; type: cell-based
Protocol: as §1

[7] = test system: PC-3 human prostate adenocarcinoma; experiment: Tumor cell growth inhibition in vitro; type: cell-based
Protocol: as §1

[8] = test system: CCRF-CEM human T-cell acute lymphoblastic leukemia cells; experiment: Tumor cell growth inhibition in vitro (XTT, 72 h); type: cell-based; details: CCRF-CEM; for IC50: 72 h incubation
Protocol: (§2) The fresh medium containing each drug was replenished every 7-14 days. […] In each case ,the drug-exposed cells were resuspended in fresh media for a minimum of 4 days before the experiments for the cell-growth inhibition was carried out.
(§3) The cells were cultured at an initial density of 2-5×10^4 cells per ml. They were maintained in a 5% CO2-humidified atmosphere at 37° C. in RPMI mediun 1640 (GIBCO/BRL) containing penicillin (100 units/ml), streptomycin (100 μg/ml) (GIBCO/BRL), and 5% heat-inactivated fetal bovine serum. For solid tumor cells growing in a monolayer (such as MCF-7/Adr), cytotoxicitiy of the drug was determined in 96-well microtiter plates by using the sulforhodamine B method as described by Skehan et al (23) for measuring the cellular protein content. For cells that were grown in suspension (such as CCRF-CEM and its sublines), cytotoxicitiy was measured by using the 2,-3-bis(2-methoxy-4-nitro-5-sulfophenyl)-5carboxanilide)-2H terazodium hydroxide (XTT)-microculture tetrazonium method (24) in duplicate in 96-well microtiter plates. For both methods, the absorbance of each well was measured with a microplate reader (EL-340, Bio-Tek, Burlington, Vt.). Each run entailed six or seven concentrations of the tested drugs. Dose-effect relationship data were analyzed with the median-effect plot (25) by using a previously described computer program (26).

DC-3F/ADII = experiment: Tumor cell growth inhibition in vitro; type: cell-based, hamster; details: for IC50: DC-3F/ADII; for cross-resistance (fold of resistance vs parent cell line): DC-3F/ADII vs DC-3F
Protocol: as §2, §3

[9] = test system: K562 chronic myelocytic leukemia xenograft; experiment: Human tumor xenograft in nude mice; type: in vivo; details: for Lowest Average Tumor Size (T/C) / Tumor Disappearance: Taxol 20 mg/kg, Q2Dx5, 6-hr i.v. infusion
Protocol: FIG. 34 depicts tumor size in nude mice bearing human leukemia […] tumor following 6 mg/kg C-15-Aza-EpoB, Q2D×6 and 30 mg/kg dEpoF, Q2ED×6 (i.v. infusion […].). K562 tumor cells (1×10^7 in 0.2 mL) were inoculated to nude mice on day 0. Mice were treated with 6 mg/kg aza-EpoB, 6 h-i.v. infusion on days 20, 22, 24, 26, 28 and 30 (Δ, n=3). The same group of mice were then treated with 30 mg/kg dEpoF, 6 h-i.v. infusion on days 42, 44, 46, 48, 52, and 54 (Δ, n=3). […] The control mice (∘, n=3) received vehicle only.
K562 tumor cells (1×10^7, in 0.2 ml/mouse) were implanted s.c. on day 0. […] The control mice (∘, n=4) received vehicle, Cremophor-ethanol (1:1), only. The vertical bars indicate mean tumor size in mm^3±S.E.
(§4) Depending on the tumor type, treatment started on day 10 to day 21 when subcutaneous tumor size reached 35-200 mm^3, except otherwise indicated. Tumor size and body-weight were recorded every other day (Q2D) and, for humane reasons, the animals were sacrificed when tumor size reached ≧10% of body-weight. Each group, including untreated control, consisted of 3-5 animals unless otherwise indicated.
Athymic nude mice bearing the nu/nu gene were used for all human tumor xenografts. Outbred, Swiss-background mice were obtained from Charles River Laboratories. Male mice 8 weeks or older weighing 22 g and up were used for most experiments. The drug was administered via the tail vein for 6 hr.-i.v. infusion. Each individual mouse was confined in a perforated Falcon polypropylene tube restrainer for drug administration. Tumor volume was assessed by measuring length×width×height (or width) using a caliper. The programmable Harvard PHD2000 syringe pump (Harvard Apparatus) with multi-track was used for i.v. infusion. […] All animal studies were conducted in accordance with the guidelines of the National Institutes of Health “Guide for the Care and Use of Animals” and the protocol approved by the Memorial Sloan-Kettering Cancer Center's Institutional Animal Care and Use Committee. In keeping with the policy of this committee for the humane treatment of tumor-bearing animals, mice were euthanized when tumors reached ≧10% of their total body weight.
(§5) Human tumor cells (5×10^6) or tumor tissue (30-50 mg) were implanted s.c. flank in nu/nu mice (Charles River Laboratories, Wilmington, Mass.). When tumor grew to a specified size, treatment was started by every-other day×5 with 6 hr i.v.-infusion, unless otherwise indicated. Tumor volume was measured with calipers in three dimensions (length×width×height or width). Body-weight changes and lethality were monitored every other day.

[10] = Body-weight decrease and lethality in tumor-bearing nude mice
Protocol: as §4
Essential features of useful cancer therapeutic agent involve not only high efficiency against cancer but also low toxicity toward the host, especially toward vital organs or functions [i.e. wide therapeutic window or high therapeutic index (LD50/ED50)].
as §5

[11] = test system: MX-1 mammary carcinoma xenograft
[12] = Homo sapiens, MCF7, MCF-7, read-out: IC50
[13] = K562, i.v. infusion (dEpoF vs 15-azaEpoB)
[14] = Homo sapiens, K562, K562, read-out: IC50

CC(=O)O[C@H]1C(=O)[C@@]2(C)[C@H]([C@H](OC(=O)c3ccccc3)[C@]3(O)C[C@H](OC(=O)[C@H](O)[C@@H](NC(=O)c4ccccc4)c4ccccc4)C(C)=C1C3(C)C)[C@]1(OC(C)=O)CO[C@@H]1C[C@@H]2O [Taxol, paclitaxel, reference compound]
solubility (physchem; water): ~600 µg/mL (≈ 0.703 mM) | IC50 [1]: 1.1 nM | IC50 ([2]; Homo sapiens, K562, read-out: IC50): 2.9 nM | IC50 [3]: 1.6 nM | IC50 [4]: 3.8 nM | IC50 [5]: 39.4 nM | IC50 [6, 12]: 2.4 nM | IC50 [7]: 28 nM | IC50 [8]: 1.2 nM | IC50 (DC-3F/ADII): 20200 nM | IC50 (DC-3F/ADII; listed as Paclitaxel): 583 nM | Lowest Average Tumor Size (T/C) ([9]; K562, dEpoB 30 mg/kg): 0.18 | Tumor Disappearance ([9]; K562, dEpoB 30 mg/kg): 0/6 | body-weight decrease without lethality at the doses used ([10]; mouse, in vivo): 10-20%

C/C(=C\c1csc(C)n1)C1C[C@@H]2O[C@]2(C)CCC[C@H](C)[C@H](O)[C@@H](C)C(=O)C(C)(C)C(O)CC(=O)N1 (stereo partly drawn) [aza-EpoB, aza-epothilone B]
IC50 [1]: 2.5 nM | IC50 ([2]; K562, listed as 15-aza-EpoB, read-out: IC50): 60 nM | IC50 ([2]; K562, read-out: IC50): 4 nM | IC50 [3]: 3.2 nM | IC50 [4]: 16 nM | IC50 [5]: 2.4 nM | IC50 [6, 12]: 4.3 nM | IC50 [7]: 42 nM | IC50 ([8]; Homo sapiens, read-out: IC50): 2.1 nM | cross-resistance (fold of resistance vs parent cell line) (DC-3F/ADII): 274 x | cross-resistance (fold of resistance vs parent cell line) (DC-3F/ADII; listed as 15-aza-EpoB): 33.1 x | IC50 (DC-3F/ADII; listed as 15-aza-EpoB, read-out: IC50): 288 nM | IC50 (DC-3F/ADII; read-out: IC50): 2380 nM | therapeutic effect on tumor growth ([9]; K562, aza-EpoB 6 mg/kg Q2D×6, 6 h-i.v. infusion (FIG. 34)): inhibited tumor growth but did not lead to a reduction in the size of the tumor | therapeutic effect on tumor growth ([9]; K562, aza-EpoB 6 mg/kg Q2D×6, 6 h-i.v. infusion (FIG. 34), listed as azaEpoB): strongly suppressed tumor growth but did not shrink the tumor | Therapeutic Effect Rank Order [9, 13]: dEpoF>>>15-azaEpoB | drop in body-weight that led to lethality ([10]; nude mice): 14-20% | mice died of toxicity on day 22 ([11]; MX-1-bearing mice, azaEpoB 6 mg/kg): one out of five | Therapeutic Effect Rank Order ([11]; mouse, in vivo, iv): dEpoB>>>15-azaEpoB

C/C1=C/C[C@@H](/C(C)=C/c2csc(CO)n2)OC(=O)C[C@H](O)C(C)(C)C(=O)[C@H](C)[C@@H](O)[C@@H](C)CCC1 [dEpoF, 12,13-Desoxyepothilone F]
solubility (physchem): ~25000 µg/mL (≈ 49.2 mM) | IC50 [1]: 0.7 nM | IC50 [2, 14]: 2.1 nM | IC50 [3]: 1.4 nM | IC50 [4]: 5.1 nM | IC50 [5]: 4.2 nM | IC50 [6, 12]: 6.9 nM | IC50 ([6]; MCF-7): 10 nM | IC50 [7]: 11.9 nM | potency relative to dEpoB (times less potent) [8]: slightly less potent than dEpoB | IC50 [8]: 2.7 nM | IC50 (DC-3F/ADII): 18.1 nM | IC50 (DC-3F/ADII; Mesocricetus auratus, DC3F): 22.3 nM | tumor free mice on day 76 ([9]; K562, aza-EpoB 6 mg/kg then dEpoF 30 mg/kg, n=3): all three mice were tumor free | therapeutic effect on tumor growth ([9]; K562, dEpoF 30 mg/kg Q2D×6 in the same mice after aza-EpoB, tumor near 500 mm^3 (FIG. 34)): readily induced reduction in the size of the tumor to the point of remission; also recorded: The tumor mass eventually disappeared three weeks later | Therapeutic Effect Rank Order [9, 13]: dEpoF>>>15-azaEpoB | drop in body-weight during treatment without causing lethality ([10]; nude mice): 23-29% | therapeutic effect on tumor growth ([11]; MX-1, dEpoF 15 mg/kg Q2D×5, 6 hr-i.v. infusion): tumor growth was partially suppressed | tumor disappearance (tumor free mice) ([11]; MX-1, dEpoF 30 mg/kg Q2D×5, 6 hr-i.v. infusion): three out of five

C/C1=C/C[C@@H](/C(C)=C/c2csc(C)n2)OC(=O)C[C@H](O)C(C)(C)C(=O)[C@H](C)[C@@H](O)[C@@H](C)CCC1 [dEpoB, 12,13-desoxyepothilone B]
solubility (physchem): ~10000 µg/mL (≈ 20.3 mM) | IC50 [1]: 3.1 nM | IC50 [2, 14]: 3.6 nM | IC50 ([2]; K562): 6.9 nM | IC50 [3]: 4.8 nM | IC50 [4]: 3.5 nM | IC50 [5]: 22.1 nM | IC50 [6, 12]: 4 nM | IC50 ([6]; MCF-7): 3.8 nM | IC50 [7]: 20.9 nM | IC50 [8]: 7.4 nM | IC50 ([8]; Homo sapiens, 72 h): 9.5 nM | Therapeutic Effect Rank Order ([9]; K562, i.v. infusion, FIG. 3 & 4): dEpoB>>>VBL> Taxol> Adriamycin | therapeutic effect of single course ([9]; K562, single course Q2D×3, dEpoB 30 mg/kg (FIG. 37)): disappearance of K562 xenografts for four weeks | therapeutic effect ([9]; K562, dEpoB 30 mg/kg, Taxol 20 mg/kg 6 hr i.v. infusion, Adriamycin 3 mg/kg, vinblastine 2.5 mg/kg i.v., every other day from day 20 (FIG. 36)): Complete remission | Lowest Average Tumor Size (T/C) ([9]; K562, dEpoB 30 mg/kg): 0 | Tumor Disappearance ([9]; K562, dEpoB 30 mg/kg): 5/5 | tumor size after treatment ([9]; K562 tumor as large as 880 mm^3 after paclitaxel, then dEpoB 30 mg/kg (Q2D×3)×3): less than 20 mm^3 | body-weight decrease without lethality at the doses used ([10]; dEpoB 30-40 mg/kg, paclitaxel 15-24 mg/kg, 6-hr i.v. infusion): 10-20% | drop in body-weight during treatment without causing lethality ([10]; nude mice): 23-29% | tumor disappearance on day 22 ([11]; MX-1, dEpoB 30 mg/kg Q2D×6 (day 10-20) then Q2D×5 (day 26-34)): ⅕ | tumor disappearance on day 38 ([11]; MX-1, dEpoB 30 mg/kg Q2D×6 then Q2D×5): ⅖ | body-weight gain during day 36-40 ([11]; MX-1-bearing mice, after dEpoB second cycle): about 2 gm | body-weight decrease on day 22 ([11]; MX-1-bearing mice, dEpoB 30 mg/kg Q2D (day 10-20)): about 3.5 gm | body-weight drop on day 36 ([11]; MX-1-bearing mice, dEpoB second cycle Q2D×5 (day 26-34)): about 4.1 gm | Lowest Average Tumor Size (T/C) ([11]; mouse, in vivo): 0 | Therapeutic Effect Rank Order ([11]; mouse, in vivo): dEpoB>Adriamycin>Taxol | Tumor Disappearance ([11]; mouse, in vivo): 5/5 | Therapeutic Effect Rank Order ([11]; mouse, in vivo, ip): dEpoB>Camptothecin>Taxol>VBL, EpoB
